In patent publication US6462064B1, “Apoptosis inducing adamantyl derivatives and their usage as anti-cancer agents, especially for cervical cancers and dysplasias” (Galderma Research & Development S.N.C., priority 1996, dated 2002):
“Also recorded” adds a separate entry of the source.

How the values were obtained:
[1] = tested on: human cervical cancer cell lines (C33A cells and Caski cells); assay: Proliferation of human cervical cancer cell lines (Example 33, FIG. 7); format: cell-based
Procedure: Another experiment was also conducted to compare the effect of three different retinoid compounds according to the invention, i.e., 6-[3-(1-adamantyl)-4-methoxyphenyl]-2-naphthoic acid, 2-[3-(1-adamantyl)-4-methoxyphenyl]-5-benzimidazole carboxylic acid, and 6-[3-(1-adamantyl)-4,5-methylenedioxyphenyl]-2-naphthoic acid, a control (DMSO), and a control retinoid (all-trans retinoic acid) on the proliferation of several human cervical cancer cell lines (C33A cells and Caski cells).

[2] = tested on: cervical cancer cell lines; assay: Apoptosis, cellular DNA fragmentation ELISA (FIG. 8); format: cell-based, human; settings: eighteen hours; adapalene 1, 5 and 10 μM, tRA 10 μM, ceramide 0.5 mM
Procedure: In this experiment cells were labeled with BrdU for six hours. After labeling, cells were treated with vehicle (DM50), or with 10 μM tRA, 0.5 mM ceramide or doses of adapalene of 1, 5 and 10 μM for eighteen hours. Apoptosis was measured using a cellular DNA fragmentation ELISA kit (available from Boehringer). […] Therein, one unit represents the value obtained from cells grown in the presence of vehicle alone.

[3] = tested on: various human cancer cell lines; assay: Anti-cancer activity against human cancer cell lines over a concentration range (FIGS. 2-4); format: cell-based; settings: retinoid concentrations 10^−9 M to 10^−5 M
Description: FIG. 2 compares the activity of selected adamantyl retinoids according to the invention and all-trans-retinoic acid against a human non-small lung carcinoma cell line.
FIG. 3 compares the activity of selected adamantyl retinoids according to the invention and all-trans-retinoic acid against human prostate adenocarcinoma, human metastatic prostate adenocarcinoma, and human prostate carcinoma cell lines.
FIG. 4 compares the activity of selected adamantyl retinoids according to the invention and all-trans-retinoic acid against a human liver cancer cell line.

[4] = tested on: panel of human tumor cell lines; assay: Cell-based high throughput screening assays, percentage of surviving cells; settings: active = percentage survival of less than 80; FIG. 1
Procedure: The anti-cancer activity of various adamantyl retinoid compounds according to the invention was compared to all-trans-retinoic acid using cell-based high throughput screening assays. Specifically, the following compounds were tested in such assays: all-trans-retinoic acid, 6[3(1-adamantyl)-4-methoxyphenyl]-2-naphthoic acid, 2-[3-(1-adamantyl)-4-methoxyphenyl]-5-benzimidazole carboxylic acid, 6-[3-(1-adamantyl)-4-hydroxy-5-methoxyphenyl]-2-naphthoic acid, 6-[3-(1-adamantyl)-4-acetoxymethylphenyl]-2-naphthoic acid and 6-[3-(1-adamantyl)-4,5-methylenedioxyphenyl]-2-naphthoic acid.
These compounds were tested against a panel of human tumor cell lines having a variety of tissue origins, and having distinct tumor characteristics. The tumor cell cultures were exposed to the above retinoid compounds for a specific duration. After such exposure, the percentage of surviving cells was then measured using standard assays.

cancer cells = assay: List of active compounds: types of cancers and precancers active against; format: cell-based
Description: As discussed, the adamantyl retinoid derivatives according to the invention which induce apoptosis are useful for treating many different types of cancers.

[5] = tested on: human cervical cancer cell lines Caski and C33A; assay: Proliferation assay on cervical cancer cell lines (Example 32, FIG. 6); format: cell-based
Procedure: Two human cervical cancer cell lines, the Caski and C33A (which contains integrated human papillomavirus sequences) were treated with adapalene at concentrations of 1, 2 and 10 μM for 24, 48 and 96 hours or with tretinoin as a control. Afterward, human cervical cancer cells, which had been treated for […] or 48 hours, were then washed and incubated in a medium lacking adapalene.
After a total incubation time of 96 hours, a proliferation assay was performed to assess the extent of inhibition of proliferation or cell killing. […] The EC50 (concentration of adapalene that provides for 50% inhibition of cell proliferation) for the tested human cervical cancer cell lines was estimated to be approximately 5 μM.

[6] = tested on: Cervical Intraepithelial Neoplasia Level II or III; assay: Phase I/II clinical study, aqueous adapalene gel with cervical cap and collagen sponge; format: in vivo, human; settings: for CIN Resolved / Improved to CIN I / Overall Response / Overall “cure” / Improved from CIN III to CIN II: Table II
Description: Level I corresponds to mild cervical dysplasia, II to moderate dysplasia, and III to severe dysplasia, and carcinoma in situ.
A clinical study was designed and approved where an aqueous adapalene gel was delivered with a cervical cap and a collagen sponge in patients with advanced cervical dysplasia (CIN II and CIN III). Inclusion criteria for enrollment included a biopsy proving diagnosis of CIN II or CIN III. Forty-nine patients received the drug and completed the study.

[7] = length of treatment 4 days (n = 2), patients (percent)
[8] = length of treatment 8 days (n = 23), patients (percent)
[9] = length of treatment 14 days (n = 24), patients (percent)

## CC1=C(/C=C/C(C)=C/C=C/C(C)=C/C(=O)O)C(C)(C)CCC1 [all-trans-retinoic acid, reference compound]
[1]
  effect on proliferation of human cervical cell lines: no significant effect on cell proliferation
[2]
  induction of apoptosis: did not induce apoptosis significantly
[3]
  anti-cancer activity: did not exhibit similar activity
[4]
  activity against human cancers (percentage of surviving cells): did not give comparable results

## O=C(O)c1ccc2cc(-c3ccc(CO)c(C45CC6CC(CC(C6)C4)C5)c3)ccc2c1 [Compound 3, 6-[3-(1-adamantyl)-4-hydroxymethylphenyl]-2-naphthoic acid]
Cancer cells
  Types of Cancers and Precancers Active Against: bladder, brain, breast, cervical,; also recorded: colon, head and neck, leukemia,; also recorded: kidney, lung, myeloma, ovarian,; also recorded: pancreatic, prostate, skin, liver
[3]
  anti-cancer activity: significant anti-cancer activity

## COc1cc(-c2ccc3cc(C(=O)O)ccc3c2)cc(C23CC4CC(CC(C4)C2)C3)c1O [Compound 4, 6-[3-(1-adamantyl)-4-hydroxy-5-methoxyphenyl]-2-naphthoic acid]
Cancer cells
  Types of Cancers and Precancers Active Against: brain, breast, kidney, lung,; also recorded: leukemia, lymphoma, myeloma,; also recorded: ovarian, pancreatic, prostate,; also recorded: skin, liver
[3]
  anti-cancer activity: significant anti-cancer activity

## COc1ccc(-c2ccc3cc(C(=O)O)ccc3c2)cc1C12CC3CC(CC(C3)C1)C2 [Compound 1, 6-[3-(1-adamantyl)-4-methoxyphenyl]-2-naphthoic acid]
[1]
  effect on proliferation of human cervical cell lines: strong inhibitory effect
Cancer cells
  Types of Cancers and Precancers Active Against: brain, cervical (including, e.g.,; also recorded: cervical intraepithelial neoplasia; also recorded: I, II, III), head and neck, leu-; also recorded: kemia, lymphoma, prostate, skin
[2]
  induction of apoptosis: comparable to that of cells incubated with ceramide
[5]; 1, 2 and 10 μM for 24, 48 and 96 hours
  inhibition of proliferation of cervical cancer cell lines: inhibit the proliferation of cervical cancer cell lines in a dose-dependent manner
[5]; Homo sapiens, total incubation time 96 hours, estimated, read-out: EC50 (concentration that provides for 50% inhibition of cell proliferation)
  EC50: ~5 µM
[5]; increase between 48 and 96 hours not statistically significant (p>0.05)
  effect of incubation longer than 24 hours on proliferation: only a marginal effect on proliferation
[5]; tested at 1, 2 and 10 μM
  concentration at which maximum inhibition of cell proliferation occurred: 10 µM
[6]; 4 days, CIN II (n = 0)
  Response: Complete: 0(0.0)
  Response: Overall: 0(0.0)
  Response: Partial: 0(0.0)
  Response: Progression: 0(0.0)
  Response: Stable: 0(0.0)
[6]; 4 days, CIN III/CIS (n = 2)
  Response: Complete: 0(0.0)
  Response: Overall: 0(0.0)
  Response: Partial: 0(0.0)
  Response: Progression: 0(0.0)
  Response: Stable: 2(100.0)
[6]; 8 days, CIN II (n = 12)
  Response: Complete: 4(33.3)
  Response: Overall: 8(66.7)
  Response: Partial: 4(33.3)
  Response: Progression: 0(0.0)
  Response: Stable: 4(33.3)
[6]; 8 days, CIN III/CIS (n = 11)
  Response: Complete: 3(27.3)
  Response: Overall: 6(54.5)
  Response: Partial: 3(27.3)
  Response: Progression: 0(0.0)
  Response: Stable: 5(45.4)
[6]; 14 days, CIN II (n = 14)
  Response: Complete: 3(21.4)
  Response: Overall: 6(42.9)
  Response: Partial: 3(21.4)
  Response: Progression: 0(0.0)
  Response: Stable: 8(57.1)
[6]; 14 days, CIN III/CIS (n = 10)
  Response: Complete: 2(20.0)
  Response: Overall: 3(30.0)
  Response: Partial: 1(10.0)
  Response: Progression: 0(0.0)
  Response: Stable: 7(70.0)
[6]; CIN II, N = 27
  CIN Resolved: 30%
  Improved to CIN I: 22%
  Overall Response: 52%
  Overall “cure”: 52%
[6]; CIN III, N = 21
  CIN Resolved: 24%
  Improved from CIN III to CIN II: 29%
  Improved to CIN I: 19%
  Overall Response: 72%
  Overall “cure”: 43%
[6]; Total, N = 48
  CIN Resolved: 27%
  Improved from CIN III to CIN II: 13%
  Improved to CIN I: 21%
  Overall Response: 61%
  Overall “cure”: 48%
[6]; eight to fourteen days
  response rates versus length of treatment: did not increase
[6]; human, in vivo
  patients with complete response: Twelve
  patients with partial response (regressed to CIN I): eleven
  patients with stable disease with no progression: Twenty-six
[6]; [7]
  Response: Complete: 0(0.0)
  Response: Overall: 0(0.0)
  Response: Partial: 0(0.0)
  Response: Progression: 0(0.0)
  Response: Stable: 2(100.0)
[6]; [8]
  Response: Complete: 7(30.4)
  Response: Overall: 14(60.8)
  Response: Partial: 7(30.4)
  Response: Progression: 0(0.0)
  Response: Stable: 9(39.1)
[6]; [9]
  Response: Complete: 5(20.8)
  Response: Overall: 9(37.5)
  Response: Partial: 4(16.7)
  Response: Progression: 0(0.0)
  Response: Stable: 15(62.5)
[6]; ninety days after treatment, 47 patients, eight day or fourteen day treatment
  overall response rate (partial plus complete): 48.7%
[6]; no patient withdrawn because of an adverse event
  adverse effects: all averse effects reported were mild
[6]; patients treated for eight days
  highest overall response rate: 60.8%
[6]; two patients, four day treatment
  response: no response

## COc1ccc(-c2nc3ccc(C(=O)O)cc3[nH]2)cc1C12CC3CC(CC(C3)C1)C2 [Compound 2, 2-[3-(1-adamantyl)-4-methoxyphenyl]-5-benzimidazole carboxylic acid]
[1]
  effect on proliferation of human cervical cell lines: strong inhibitory effect
Cancer cells
  Types of Cancers and Precancers Active Against: brain, colon, leukemia, lung,; also recorded: cervical (including, e.g.,; also recorded: cervical intraepithelial neoplasia; also recorded: I, II, III), lymphoma, myeloma,; also recorded: ovarian, pancreatic, prostate,; also recorded: skin, liver
[3]
  anti-cancer activity: significant anti-cancer activity

## Ceramide
[2]
  induction of apoptosis: effectively induced apoptosis
